The source of these data is ChEMBL document CHEMBL1157814, “Modulation of cellular adhesion by glycoengineering” (J Med Chem, 2010).

The source made the active and inactive calls. No cut-off for these calls is given here.

The experiment deals with T1, P-selectin (Homo sapiens) (UniProt P16109).
T1 sequence (whole entry): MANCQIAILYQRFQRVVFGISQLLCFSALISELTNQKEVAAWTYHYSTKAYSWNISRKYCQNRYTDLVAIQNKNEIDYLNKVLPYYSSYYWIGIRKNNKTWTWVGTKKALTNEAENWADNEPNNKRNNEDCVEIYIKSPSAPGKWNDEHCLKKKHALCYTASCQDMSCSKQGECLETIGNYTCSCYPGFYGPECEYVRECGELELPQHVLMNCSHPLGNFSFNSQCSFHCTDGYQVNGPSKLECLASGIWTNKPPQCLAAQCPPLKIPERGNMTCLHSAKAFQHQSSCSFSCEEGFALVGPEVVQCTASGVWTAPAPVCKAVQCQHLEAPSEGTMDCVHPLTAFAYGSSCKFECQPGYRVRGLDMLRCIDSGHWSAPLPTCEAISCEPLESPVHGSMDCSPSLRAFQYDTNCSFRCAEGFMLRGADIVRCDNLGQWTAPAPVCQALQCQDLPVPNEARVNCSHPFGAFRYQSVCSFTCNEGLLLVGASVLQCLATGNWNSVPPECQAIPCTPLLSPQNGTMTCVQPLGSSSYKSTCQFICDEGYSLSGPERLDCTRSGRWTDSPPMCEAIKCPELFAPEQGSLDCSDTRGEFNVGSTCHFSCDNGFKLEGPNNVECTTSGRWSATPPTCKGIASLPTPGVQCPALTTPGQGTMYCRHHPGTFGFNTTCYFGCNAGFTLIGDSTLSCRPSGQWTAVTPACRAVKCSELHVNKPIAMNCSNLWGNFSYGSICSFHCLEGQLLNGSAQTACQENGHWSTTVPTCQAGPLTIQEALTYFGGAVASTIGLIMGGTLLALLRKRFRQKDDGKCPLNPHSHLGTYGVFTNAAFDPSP
Briefly: Inhibition of human HL60 cell adhesion to P-selectin coated on microtiter plates assessed as reduction in adhesion at 200 uM after 3 days by calcein-AM assay relative to untreated cells. Format: cell-based. Set-up: scale not given: the % may be the effect or the level left. Conditions: HL-60.

In the case of `COC(=O)[C@@]1(OC(C)=O)C[C@H](OC(C)=O)[C@@H](NC(=O)CC(C)C)[C@H]([C@@H](OC(C)=O)[C@@H](COC(C)=O)OC(C)=O)O1`, the Activity was 10%.

Consider `COC(=O)[C@@]1(OC(C)=O)C[C@H](OC(C)=O)[C@@H](NC(=O)CC(F)(F)F)[C@H]([C@@H](OC(C)=O)[C@@H](COC(C)=O)OC(C)=O)O1`, for which the Activity is 62%.

In the case of `COC(=O)[C@@]1(OC(C)=O)C[C@H](OC(C)=O)[C@@H](NC(=O)CCC(F)(F)F)[C@H]([C@@H](OC(C)=O)[C@@H](COC(C)=O)OC(C)=O)O1`, the Activity is 77%.

Take `CCC(=O)N[C@H]1[C@H]([C@@H](OC(C)=O)[C@@H](COC(C)=O)OC(C)=O)O[C@@](OC(C)=O)(C(=O)OC)C[C@@H]1OC(C)=O`: the outcome was Active.

Turning to `COC(=O)[C@@]1(OC(C)=O)C[C@H](OC(C)=O)[C@@H](NC(=O)CCC(C)C)[C@H]([C@@H](OC(C)=O)[C@@H](COC(C)=O)OC(C)=O)O1`, the Activity was 44%.
